Experimental data from patent publication US20080311138A1 (priority 2004, published 2008).
No end group written: not given here.

Experiments:
VIP = conditions: in man; cited from earlier work
TT = test system: TT; design: species or system mice (C57/BL6); conditions: mouse, in vivo
tetanus toxin = test system: tetanus toxin; design: species or system mice (C57/BL6); conditions: mouse, in vivo
tetanus toxoid (TT) = test system: tetanus toxoid (TT); design: species or system mice (C57/BL6); conditions: mouse, in vivo
[1] = circulating GLP-1; inactivated by N-terminal cleavage by DPP-IV; cited from earlier work

Row | Substance | VIP agonist activity (VIP) | range of anti-TT IgG titer (TT) | paralysis after tetanus toxin challenge (tetanus toxin) | survivors after tetanus toxin challenge (tetanus toxin) | anti-TT serum IgA response (GMT) (tetanus toxoid (TT)) | half life [1]
1 | VIP 2-28: Gastrointestinal peptide, residues 2-28 of Vasoactive Intestinal Peptide (SDAVFTDNYTRLRKQMAVKKYLNSILN; ends and bridges not checked; UniProt P01282 126-152, looked up, fragment) | full VIP agonist | – | – | – | – | –
2 | GLP-1 (HDRHAGTTSDVSSYGAAKAWVKGRG; listed as Homo sapiens) | – | 16,384-131,072 | no sign of paralysis | 8/8 | 959 | several minutes
